For 29 molecules, IC50 results are on record in patent US20220089592A1, “IMIDAZO[1,2-A]PYRIDINYL DERIVATIVES AS IRAK4 INHIBITORS” (priority 2019, published 2022).

In test [1] the target is T1, IRAK4 (Homo sapiens, UniProt Q9NWZ3).
T1 sequence (Q9NWZ3 1-460): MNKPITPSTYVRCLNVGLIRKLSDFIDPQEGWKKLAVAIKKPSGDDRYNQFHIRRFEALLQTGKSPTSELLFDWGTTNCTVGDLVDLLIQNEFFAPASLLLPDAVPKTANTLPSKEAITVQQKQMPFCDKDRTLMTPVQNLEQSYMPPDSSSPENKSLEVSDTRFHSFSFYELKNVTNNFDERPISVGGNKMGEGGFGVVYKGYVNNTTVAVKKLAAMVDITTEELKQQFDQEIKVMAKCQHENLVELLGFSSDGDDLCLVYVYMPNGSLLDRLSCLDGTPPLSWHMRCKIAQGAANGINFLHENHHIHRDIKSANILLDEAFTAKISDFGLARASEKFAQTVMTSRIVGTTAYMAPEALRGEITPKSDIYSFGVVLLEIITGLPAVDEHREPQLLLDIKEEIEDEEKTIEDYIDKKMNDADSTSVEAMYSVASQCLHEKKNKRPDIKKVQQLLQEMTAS
The test is described as follows: 2-hour 1 mM ATP IRAK4 Biochemical assay (as above, but with 100 pM IRAK4 and 1 mM ATP). The conditions noted are these: IRAK4 MSD BIOCHEMICAL (1 mM ATP) IC50 (μM), 100 pM IRAK4, 2 hours. The essentials:
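MSD electrochemiluminescence read-out: biotinylated peptide product bound to streptavidin plates, probed with anti-P-Thr rabbit antibody and Sulfo-Tag goat anti-rabbit. Kinase reaction used 1 mM ATP and 100 pM IRAK4 over 2 hours before EDTA quench.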

The target of test [2] is T1, IRAK4. The test is described as follows: 2-hour 10 μM ATP Biochemical Assay (MesoScale Detection format; IRAK4 phosphorylation of biotin labeled IRAK1 activation loop peptide). The conditions noted are these: IRAK4 MSD BIOCHEMICAL (10 μM ATP) IC50 (μM), 1 nM IRAK4, 2 hours. In outline:
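Electrochemiluminescent MSD readout: after streptavidin capture, phosphothreonine on the biotin-labelled IRAK1 activation-loop peptide detected by rabbit antibody and Sulfo-Tag secondary. Phosphorylation ran 2 h with 10 μM ATP before EDTA quench.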

Each structure is given as a SMILES string.

The IC50 is the concentration at which inhibition is half-maximal. On to `CCOc1nc2nc(CC3CCOC3)cn2cc1NC(=O)c1cccc(C(F)(F)F)n1` (stereo not shown) [Example 93, N-(7-ethoxy-2-((tetrahydrofuran-3-yl)methyl)imidazo[1,2-a]pyrimidin-6-yl)-6-(trifluoromethyl)picolinamide], for which the IC50 is 0.005 µM on IRAK4 [1] and 0.001 µM against IRAK4 [2].

Consider `CCOc1cc2nc([C@H]3C[C@H](O)C3)cn2cc1NC(=O)c1cccc(C(F)F)n1` [Example 96], for which the IC50 at IRAK4 [1] and on IRAK4 [2] was 0.001 µM each time.

For `CCOc1cc2nc([C@H]3C[C@@H](O)C3)cn2cc1NC(=O)c1cccc(C(F)F)n1` [Example 97], the IC50 on IRAK4 [1] and against IRAK4 [2] was 0.002 µM throughout.

As for `CCOc1cc2nc(C3(CO)CC3)cn2cc1NC(=O)c1cccc(C(F)F)n1` [Example 98, 6-(difluoromethyl)-N-(7-ethoxy-2-(1-(hydroxymethyl)cyclopropyl)imidazo[1,2-a]pyridin-6-yl)picolinamide], the results for the IC50 at IRAK4 [1] and against IRAK4 [2] were 0.018 µM and 0.008 µM, respectively.

Turning to `CCOc1cc2nc(CC(F)CO)cn2cc1NC(=O)c1cccc(C(F)F)n1` (stereo not shown) [Example 99, 6-(difluoromethyl)-N-(7-ethoxy-2-(2-fluoro-3-hydroxypropyl)imidazo[1,2-a]pyridin-6-yl)picolinamide], the IC50 turned out to be 0.004 µM against IRAK4 [1] and 0.002 µM at IRAK4 [2].

Turning to `CCOc1cc2nc(C(C)(C)O)cn2cc1NC(=O)c1cccc(C(F)F)n1` [Example 100, 6-(difluoromethyl)-N-(7-ethoxy-2-(2-hydroxypropan-2-yl)imidazo[1,2-a]pyridin-6-yl)picolinamide], the IC50 against IRAK4 [1] was 0.011 µM; against IRAK4 [2], 0.008 µM.

`COCCOc1cc2nc(C3CC3)cn2cc1NC(=O)c1cccc(C(F)F)n1` [Example 101, N-(2-cyclopropyl-7-(2-methoxyethoxy)imidazo[1,2-a]pyridin-6-yl)-6-(difluoromethyl)picolinamide]: the results for the IC50 on IRAK4 [1] and at IRAK4 [2] were 0.029 µM and 0.006 µM, respectively.

`CCOc1cc2nc(C(=O)N(C)C)cn2cc1NC(=O)c1cccc(C(F)F)n1` [Example 108, 6-(6-(difluoromethyl)picolinamido)-7-ethoxy-N,N-dimethylimidazo[1,2-a]pyridine-2-carboxamide]: the IC50 on IRAK4 [1] amounted to 0.025 µM; against IRAK4 [2], 0.011 µM.

Take `CCOc1cc2nc(C(C)(F)F)cn2cc1NC(=O)c1cccc(C(F)F)n1` [Example 109, N-(2-(1,1-difluoroethyl)-7-ethoxyimidazo[1,2-a]pyridin-6-yl)-6-(difluoromethyl)picolinamide]: the figures for the IC50 at IRAK4 [1] and against IRAK4 [2] were 0.003 µM and 0.002 µM, respectively.

With `CCOc1cc2nc(CCC(F)F)cn2cc1NC(=O)c1cccc(C(F)F)n1` [Example 110, 6-(difluoromethyl)-N-(2-(3,3-difluoropropyl)-7-ethoxyimidazo[1,2-a]pyridin-6-yl)picolinamide], the IC50 on IRAK4 [1] and against IRAK4 [2] was 0.001 µM in each case.

Turning to `CCOc1cc2nc(C3(F)CC3)cn2cc1NC(=O)c1cccc(C(F)F)n1` [Example 111, 6-(difluoromethyl)-N-(7-ethoxy-2-(1-fluorocyclopropyl)imidazo[1,2-a]pyridin-6-yl)picolinamide], the IC50 was determined as 0.003 µM on IRAK4 [1] and 0.002 µM against IRAK4 [2].

As to `CCOc1cc2nc(C3CCCOC3)cn2cc1NC(=O)c1cccc(C(F)(F)F)n1` (stereo not shown) [Example 112, N-(7-ethoxy-2-(tetrahydro-2H-pyran-3-yl)imidazo[1,2-a]pyridin-6-yl)-6-(trifluoromethyl)picolinamide], the IC50 at IRAK4 [1] and against IRAK4 [2] was 0.001 µM in each case.

For the molecule `CCOc1cc2nc([C@H]3C[C@@H](OC)C3)cn2cc1NC(=O)c1cccc(C(F)F)n1` [Example 115, 6-(difluoromethyl)-N-(7-ethoxy-2-((1s,3s)-3-methoxycyclobutyl)imidazo[1,2-a]pyridin-6-yl)picolinamide], the IC50 is 0.002 µM on IRAK4 [1] and 0.001 µM at IRAK4 [2].

On to `CCOc1cc2nc(C3CCOCC3)cn2cc1NC(=O)c1cccc(C(F)F)n1` [Example 116, 6-(difluoromethyl)-N-(7-ethoxy-2-(tetrahydro-2H-pyran-4-yl)imidazo[1,2-a]pyridin-6-yl)picolinamide], for which the IC50 against IRAK4 [1] and against IRAK4 [2] was 0.001 µM throughout.

Regarding `CCOc1cc2nc(C3CC3)cn2cc1NC(=O)c1cccc(OC)n1` [Example 117, N-(2-cyclopropyl-7-ethoxyimidazo[1,2-a]pyridin-6-yl)-6-methoxypicolinamide], the values for the IC50 against IRAK4 [1] and against IRAK4 [2] were 0.063 µM and 0.027 µM, respectively.

As for `CCOc1cc2nc(C3CC3)cn2cc1NC(=O)c1cccc2c1OCC2` [Example 119, N-(2-cyclopropyl-7-ethoxyimidazo[1,2-a]pyridin-6-yl)-2,3-dihydrobenzofuran-7-carboxamide], the IC50 was determined as 0.021 µM at IRAK4 [1] and 0.009 µM on IRAK4 [2].

As for `CCOc1cc2nc(CC3CCOC3)cn2cc1NC(=O)c1ccn(C(C)C)n1` (stereo not shown) [Example 122, N-(7-ethoxy-2-((tetrahydrofuran-3-yl)methyl)imidazo[1,2-a]pyridin-6-yl)-1-isopropyl-1H-pyrazole-3-carboxamide], the IC50 against IRAK4 [1] came out at 0.003 µM; at IRAK4 [2] it was 0.008 µM.

As to `CCOc1cc2nc(CC3CCOC3)cn2cc1NC(=O)c1ccn(CC(F)(F)F)n1` (stereo not shown) [Example 123, N-(7-ethoxy-2-((tetrahydrofuran-3-yl)methyl)imidazo[1,2-a]pyridin-6-yl)-1-(2,2,2-trifluoroethyl)-1H-pyrazole-3-carboxamide], the IC50 at IRAK4 [1] is 0.014 µM; on IRAK4 [2], 0.008 µM.

With `CCOc1cc2nc(CC3CCOC3)cn2cc1NC(=O)c1ccn(C(F)F)n1` (stereo not shown) [Example 124, 1-(difluoromethyl)-N-(7-ethoxy-2-((tetrahydrofuran-3-yl)methyl)imidazo[1,2-a]pyridin-6-yl)-1H-pyrazole-3-carboxamide], the IC50 at IRAK4 [1] and against IRAK4 [2] was 0.002 µM in each case.

On to `CCOc1cc2nc(CC3CCOC3)cn2cc1NC(=O)c1ccn(CC(F)F)n1` (stereo not shown) [Example 125, 1-(2,2-difluoroethyl)-N-(7-ethoxy-2-((tetrahydrofuran-3-yl)methyl)imidazo[1,2-a]pyridin-6-yl)-1H-pyrazole-3-carboxamide], for which the IC50 on IRAK4 [1] amounted to 0.01 µM; against IRAK4 [2], 0.004 µM.

Take `CCOc1cc2nc(C34CC(F)(C3)C4)cn2cc1NC(=O)c1cccc(C(F)F)n1` [Example 127, 6-(difluoromethyl)-N-(7-ethoxy-2-(3-fluorobicyclo[1.1.1]pentan-1-yl)imidazo[1,2-a]pyridin-6-yl)picolinamide]: the IC50 against IRAK4 [1] stood at 0.003 µM; on IRAK4 [2], 0.001 µM.

As for `CCOc1cc2nc(C3(OC)CC3)cn2cc1NC(=O)c1cccc(C(F)F)n1` [Example 128, 6-(difluoromethyl)-N-(7-ethoxy-2-(1-methoxycyclopropyl)imidazo[1,2-a]pyridin-6-yl)picolinamide], the IC50 is 0.007 µM at IRAK4 [1] and 0.002 µM at IRAK4 [2].

Turning to `CCOc1cc2nc(C34CC(CO)(C3)C4)cn2cc1NC(=O)c1cccc(C(F)F)n1` [Example 130, 6-(difluoromethyl)-N-(7-ethoxy-2-(3-(hydroxymethyl)bicyclo[1.1.1]pentan-1-yl)imidazo[1,2-a]pyridin-6-yl)picolinamide], the IC50 on IRAK4 [1] and on IRAK4 [2] was 0.001 µM in each case.

With `CCOc1cc2nc(C3CC3)cn2cc1NC(=O)c1cccc(N2CCOCC2)n1` [Example 131, N-(2-cyclopropyl-7-ethoxyimidazo[1,2-a]pyridin-6-yl)-6-morpholinopicolinamide], the IC50 on IRAK4 [1] was 0.044 µM; at IRAK4 [2], 0.005 µM.

Turning to `CCOc1cc2nc(C3CCOCC3)cn2cc1NC(=O)c1cccc(OC)n1` [Example 133, N-(7-ethoxy-2-(tetrahydro-2H-pyran-4-yl)imidazo[1,2-a]pyridin-6-yl)-6-methoxypicolinamide], the IC50 came to 0.004 µM against IRAK4 [1] and 0.002 µM against IRAK4 [2].

Turning to `CCOc1cc2nc(CC3CCOC3)cn2cc1NC(=O)c1cccc(OC)n1` (stereo not shown) [Example 134, N-(7-ethoxy-2-((tetrahydrofuran-3-yl)methyl)imidazo[1,2-a]pyridin-6-yl)-6-methoxypicolinamide], the results for the IC50 at IRAK4 [1] and on IRAK4 [2] were 0.009 µM and 0.002 µM, respectively.

Turning to `CCOc1cc2nc([C@H]3C[C@H](OC(C)C)C3)cn2cc1NC(=O)c1cccc(C(F)F)n1` [Example 135, 6-(difluoromethyl)-N-(7-ethoxy-2-((1r,3r)-3-isopropoxycyclobutyl)imidazo[1,2-a]pyridin-6-yl)picolinamide], the IC50 against IRAK4 [1] stood at 0.006 µM; at IRAK4 [2], 0.002 µM.

Turning to `CCOc1cc2nc([C@H]3C[C@@H](OC(C)C)C3)cn2cc1NC(=O)c1cccc(C(F)F)n1` [Example 136, 6-(difluoromethyl)-N-(7-ethoxy-2-((1s,3s)-3-isopropoxycyclobutyl)imidazo[1,2-a]pyridin-6-yl)picolinamide], the IC50 against IRAK4 [1] amounted to 0.002 µM; against IRAK4 [2], 0.001 µM.

On to `CCOc1nc(NC(=O)c2cccc(OC)n2)cn2cc(C3CCOCC3)nc12` [Example 147, N-(8-ethoxy-2-(tetrahydro-2H-pyran-4-yl)imidazo[1,2-a]pyrazin-6-yl)-6-methoxypicolinamide], for which the IC50 against IRAK4 [1] worked out at 0.051 µM; against IRAK4 [2], 0.011 µM.
